Reference: patent publication US20230085307A1, “PYRIDAZINONE COMPOUND AND HERBICIDE” (NISSAN CHEMICAL CORPORATION, priority 2019, published 2023)

System: rice flat sedge
Experiment: Test Example 3: herbicidal effect by foliage application, Wagner pot (Table 18, symbol E)
Format: in vivo, rice flat sedge (Cyperus iria)
Settings: 266 g/ha
Method in brief: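 Plants were sown in alluvial soil held under 0.1–0.5 cm standing water and grown 14 days in a greenhouse at 25–30 °C. An emulsifiable formulation, water-diluted to the set dose, was then sprayed onto the foliage, and effects were scored three weeks later using previously defined criteria.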

Row | SMILES | herbicidal effect on E (rice flat sedge), rating 0-5
1 | CCCC(=O)Oc1c(C)nn(C)c(=O)c1-c1c(-c2ccccc2OCC)sc2ccc(F)cc12 [2-029] | 3 (Herbicidal rate of 40% or more and less than 70%)

Same assay, conditions: 320 g/ha

Row | SMILES | herbicidal effect on E (rice flat sedge), rating 0-5
2 | CCCOc1ccccc1-c1sc2ccccc2c1-c1c(O)c(C)nn(C)c1=O [1-015] | 5 (Herbicidal rate of 90% or more (almost completely withered))
3 | CCCCCOc1ccc(-c2sc3ccccc3c2-c2c(O)c(C)nn(C)c2=O)cc1 [1-026] | 4 (Herbicidal rate of 70% or more and less than 90%)
4 | Cc1nn(C)c(=O)c(-c2c(-c3ccccc3OC(F)(F)F)sc3ccccc23)c1O [1-030] | 4 (Herbicidal rate of 70% or more and less than 90%)
5 | CC(=O)c1ccc(-c2sc3ccccc3c2-c2c(O)c(C)nn(C)c2=O)cc1 [1-041] | 5 (Herbicidal rate of 90% or more (almost completely withered))
6 | CCCC(=O)Oc1c(C)nn(C)c(=O)c1-c1c(-c2ccc(C(C)=NOC)cc2)sc2ccccc12 [1-044] | 5 (Herbicidal rate of 90% or more (almost completely withered))
7 | Cc1cc(-c2sc3ccccc3c2-c2c(O)c(C)nn(C)c2=O)ccc1F [1-051] | 5 (Herbicidal rate of 90% or more (almost completely withered))
8 | CCOc1cc(F)ccc1-c1sc2ccccc2c1-c1c(O)c(C)nn(C)c1=O [1-061] | 5 (Herbicidal rate of 90% or more (almost completely withered))
9 | COC(=O)Oc1c(C)nn(C)c(=O)c1-c1c(-c2ccc3c(c2)OCCO3)sc2ccccc12 [1-091] | 5 (Herbicidal rate of 90% or more (almost completely withered))
10 | Cc1nn(C)c(=O)c(-c2c(-c3ccc4c(c3)OCCO4)sc3ccccc23)c1OC(=O)SC(C)(C)C [1-092] | 5 (Herbicidal rate of 90% or more (almost completely withered))
11 | Cc1nn(C)c(=O)c(-c2c(-c3ccc4c(c3)CCO4)sc3ccccc23)c1O [1-101] | 5 (Herbicidal rate of 90% or more (almost completely withered))
12 | CCCC(=O)Oc1c(C)nn(C)c(=O)c1-c1c(-c2ccc3c(c2)CCO3)sc2ccccc12 [1-102] | 5 (Herbicidal rate of 90% or more (almost completely withered))
13 | COCc1ccc(-c2sc3ccccc3c2-c2c(O)c(C)nn(C)c2=O)cc1 [1-131] | 5 (Herbicidal rate of 90% or more (almost completely withered))
14 | Cc1nn(C)c(=O)c(-c2c(-c3ccc(OC(C)C)cc3)sc3ccc(F)cc23)c1O [2-034] | 5 (Herbicidal rate of 90% or more (almost completely withered))
15 | CCCC(=O)Oc1c(C)nn(C)c(=O)c1-c1c(-c2ccc(F)cc2OCC)sc2ccc(F)cc12 [2-085] | 4 (Herbicidal rate of 70% or more and less than 90%)

Same assay, conditions: amount of applied herbicide 320 g/ha

Row | SMILES | herbicidal effect on E: rice flat sedge
16 | COCC(=O)Oc1c(C)nn(C)c(=O)c1-c1c(-c2ccc(OC(F)F)cc2)sc2ccc(F)cc12 [2-283] | 5 (Herbicidal rate of 90% or more (almost completely withered))
17 | Cc1nn(C)c(=O)c(-c2c(-c3ccc([N+](=O)[O-])cc3)sc3ccc(F)cc23)c1O [2-341] | 3 (Herbicidal rate of 40% or more and less than 70%)

System: false cleavers
Experiment: Test Example 4: herbicidal effect by soil treatment (Table 19, symbol Q)
Format: in vivo, false cleavers (Galium spurium)
Settings: 266 g/ha
Method in brief: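 Applied as a water-diluted emulsion, the compound was sprayed onto soil covering newly sown seeds. Evaluation came three weeks after application, in a greenhouse held at 25° C. to 30° C.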

Row | SMILES | herbicidal effect rating, Q: false cleavers
18 | CCCC(=O)Oc1c(C)nn(C)c(=O)c1-c1c(-c2ccccc2OCC)sc2ccc(F)cc12 [2-029] | 3 (Herbicidal rate of 40% or more and less than 70%)

Same assay, conditions: 320 g/ha

Row | SMILES | herbicidal effect rating, Q: false cleavers
19 | Cc1nn(C)c(=O)c(-c2c(-c3ccc(OC(C)C)cc3)sc3ccc(F)cc23)c1O [2-034] | 0 (Herbicidal rate of 5% or less (almost no effect))
20 | CCCC(=O)Oc1c(C)nn(C)c(=O)c1-c1c(-c2ccc(F)cc2OCC)sc2ccc(F)cc12 [2-085] | 4 (Herbicidal rate of 70% or more and less than 90%)

Same assay, conditions: AAH 320 g/ha

Row | SMILES | Q: false cleavers, herbicidal effect rating
21 | COCc1ccc(-c2sc3ccccc3c2-c2c(O)c(C)nn(C)c2=O)cc1 [1-131] | 0 (Herbicidal rate of 5% or less (almost no effect))

Same assay, conditions: amount of applied herbicide 320 g/ha

Row | SMILES | herbicidal effect rating, Q: false cleavers | herbicidal effect on Q: false cleavers
22 | CCCOc1ccccc1-c1sc2ccccc2c1-c1c(O)c(C)nn(C)c1=O [1-015] | 3 (Herbicidal rate of 40% or more and less than 70%) | 
23 | CCCCCOc1ccc(-c2sc3ccccc3c2-c2c(O)c(C)nn(C)c2=O)cc1 [1-026] | 0 (Herbicidal rate of 5% or less (almost no effect)) | 
24 | Cc1nn(C)c(=O)c(-c2c(-c3ccccc3OC(F)(F)F)sc3ccccc23)c1O [1-030] | 5 (Herbicidal rate of 90% or more (almost completely withered)) | 
25 | CC(=O)c1ccc(-c2sc3ccccc3c2-c2c(O)c(C)nn(C)c2=O)cc1 [1-041] | 5 (Herbicidal rate of 90% or more (almost completely withered)) | 
26 | CCCC(=O)Oc1c(C)nn(C)c(=O)c1-c1c(-c2ccc(C(C)=NOC)cc2)sc2ccccc12 [1-044] | 4 (Herbicidal rate of 70% or more and less than 90%) | 
27 | Cc1cc(-c2sc3ccccc3c2-c2c(O)c(C)nn(C)c2=O)ccc1F [1-051] | 0 (Herbicidal rate of 5% or less (almost no effect)) | 
28 | CCOc1cc(F)ccc1-c1sc2ccccc2c1-c1c(O)c(C)nn(C)c1=O [1-061] | 4 (Herbicidal rate of 70% or more and less than 90%) | 
29 | COC(=O)Oc1c(C)nn(C)c(=O)c1-c1c(-c2ccc3c(c2)OCCO3)sc2ccccc12 [1-091] | 3 (Herbicidal rate of 40% or more and less than 70%) | 
30 | Cc1nn(C)c(=O)c(-c2c(-c3ccc4c(c3)OCCO4)sc3ccccc23)c1OC(=O)SC(C)(C)C [1-092] | 0 (Herbicidal rate of 5% or less (almost no effect)) | 
31 | Cc1nn(C)c(=O)c(-c2c(-c3ccc4c(c3)CCO4)sc3ccccc23)c1O [1-101] | 3 (Herbicidal rate of 40% or more and less than 70%) | 
32 | CCCC(=O)Oc1c(C)nn(C)c(=O)c1-c1c(-c2ccc3c(c2)CCO3)sc2ccccc12 [1-102] | 0 (Herbicidal rate of 5% or less (almost no effect)) | 
33 | COCC(=O)Oc1c(C)nn(C)c(=O)c1-c1c(-c2ccc(OC(F)F)cc2)sc2ccc(F)cc12 [2-283] |  | 0 (Herbicidal rate of 5% or less (almost no effect))
34 | Cc1nn(C)c(=O)c(-c2c(-c3ccc([N+](=O)[O-])cc3)sc3ccc(F)cc23)c1O [2-341] |  | 0 (Herbicidal rate of 5% or less (almost no effect))

System: false cleavers
Experiment: Test Example 5: herbicidal effect by foliage application, plastic box (Table 20, symbol Q)
Format: in vivo, false cleavers (Galium spurium)
Settings: foliage application, 266 g/ha, 3 weeks after application
Method in brief: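 Sow seeds spot-wise in sterilized diluvial soil; cover with ~1.5 cm soil. Grow 14 days in greenhouse, 25° C. to 30° C. Spray foliage with emulsion diluted to predetermined amount. Rate effect after 3 weeks.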

Row | SMILES | effect on false cleavers (Q)
35 | CCCC(=O)Oc1c(C)nn(C)c(=O)c1-c1c(-c2ccccc2OCC)sc2ccc(F)cc12 [2-029] | 4 (Herbicidal rate of 70% or more and less than 90%)

Same assay, conditions: foliage application, 320 g/ha, 3 weeks after application

Row | SMILES | effect on false cleavers (Q)
36 | Cc1nn(C)c(=O)c(-c2c(-c3ccc(OC(C)C)cc3)sc3ccc(F)cc23)c1O [2-034] | 4 (Herbicidal rate of 70% or more and less than 90%)

Same assay, conditions: foliage application, 320 g/ha, evaluated three weeks after application

Row | SMILES | herbicidal effect on Q: false cleavers
37 | CCCC(=O)Oc1c(C)nn(C)c(=O)c1-c1c(-c2ccc(F)cc2OCC)sc2ccc(F)cc12 [2-085] | 5 (Herbicidal rate of 90% or more (almost completely withered))

Same assay, conditions: foliage application, 320 g/ha, three weeks after application

Row | SMILES | herbicidal effect grade, Q: false cleavers
38 | CCCOc1ccccc1-c1sc2ccccc2c1-c1c(O)c(C)nn(C)c1=O [1-015] | 5 (Herbicidal rate of 90% or more (almost completely withered))
39 | CCCCCOc1ccc(-c2sc3ccccc3c2-c2c(O)c(C)nn(C)c2=O)cc1 [1-026] | 4 (Herbicidal rate of 70% or more and less than 90%)
40 | Cc1nn(C)c(=O)c(-c2c(-c3ccccc3OC(F)(F)F)sc3ccccc23)c1O [1-030] | 5 (Herbicidal rate of 90% or more (almost completely withered))
41 | CC(=O)c1ccc(-c2sc3ccccc3c2-c2c(O)c(C)nn(C)c2=O)cc1 [1-041] | 4 (Herbicidal rate of 70% or more and less than 90%)
42 | CCCC(=O)Oc1c(C)nn(C)c(=O)c1-c1c(-c2ccc(C(C)=NOC)cc2)sc2ccccc12 [1-044] | 3 (Herbicidal rate of 40% or more and less than 70%)
43 | Cc1cc(-c2sc3ccccc3c2-c2c(O)c(C)nn(C)c2=O)ccc1F [1-051] | 0 (Herbicidal rate of 5% or less (almost no effect))
44 | CCOc1cc(F)ccc1-c1sc2ccccc2c1-c1c(O)c(C)nn(C)c1=O [1-061] | 5 (Herbicidal rate of 90% or more (almost completely withered))

Same assay, conditions: foliage application, AAH 320 g/ha, evaluated three weeks after application

Row | SMILES | Q: false cleavers, herbicidal effect (criteria 0-5)
45 | COCC(=O)Oc1c(C)nn(C)c(=O)c1-c1c(-c2ccc(OC(F)F)cc2)sc2ccc(F)cc12 [2-283] | 5 (Herbicidal rate of 90% or more (almost completely withered))

Same assay, conditions: foliage application, AAH 320 g/ha, three weeks after application

Row | SMILES | Q: false cleavers, herbicidal effect
46 | COC(=O)Oc1c(C)nn(C)c(=O)c1-c1c(-c2ccc3c(c2)OCCO3)sc2ccccc12 [1-091] | 4 (Herbicidal rate of 70% or more and less than 90%)
47 | Cc1nn(C)c(=O)c(-c2c(-c3ccc4c(c3)OCCO4)sc3ccccc23)c1OC(=O)SC(C)(C)C [1-092] | 0 (Herbicidal rate of 5% or less (almost no effect))
48 | Cc1nn(C)c(=O)c(-c2c(-c3ccc4c(c3)CCO4)sc3ccccc23)c1O [1-101] | 3 (Herbicidal rate of 40% or more and less than 70%)
49 | CCCC(=O)Oc1c(C)nn(C)c(=O)c1-c1c(-c2ccc3c(c2)CCO3)sc2ccccc12 [1-102] | 1 (Herbicidal rate of 5% or more and less than 20%)
50 | COCc1ccc(-c2sc3ccccc3c2-c2c(O)c(C)nn(C)c2=O)cc1 [1-131] | 4 (Herbicidal rate of 70% or more and less than 90%)
